Measured values: ChEMBL document CHEMBL5096167, “Recent advances in development of hetero-bivalent kinase inhibitors” (Eur J Med Chem, 2021)
*1 amine or outer side, *2 acyl side, *3 side chain or, on linkers, in order; H or OH if unused. Where a SMILES comes first, the peptide text is derived from it. [ ]: non-standard residue; d: D form. The star is where a group is joined. ξ: configuration not given here. X1 = Brc1c(Br)c(Br)c2[nH]c(NCCCN*)nc2c1Br; X2 = O=C(Cc1c(Br)c(Br)c(Br)c2[nH]nnc12)*; Suc = O=C(CCC(=O)[*:2])[*:1]; ξE = NC(CCC(=O)O)C(=O)O; ξS = NC(CO)C(=O)O

Key:
[1] = target: T1, cAMP-dependent protein kinase (PKA) (Homo sapiens, UniProt P22694+P17612+P22612)
[2] = Inhibition of CK2alpha2beta2 (unknown origin); set-up: species or system Homo sapiens
[3] = target: cAMP-dependent protein kinase catalytic subunit alpha (Homo sapiens, UniProt P17612); assay: Displacement of mAb(D38C6)-BTN from human recombinant PKAc alpha incubated for 15 mins by microplate reader assay
[4] = Binding affinity to full length human recombinant PKAc assessed as dissociation constant
[5] = target: T2, Serine/threonine-protein kinase haspin (Homo sapiens, UniProt Q8TF76)
T2 sequence (Q8TF76 whole entry): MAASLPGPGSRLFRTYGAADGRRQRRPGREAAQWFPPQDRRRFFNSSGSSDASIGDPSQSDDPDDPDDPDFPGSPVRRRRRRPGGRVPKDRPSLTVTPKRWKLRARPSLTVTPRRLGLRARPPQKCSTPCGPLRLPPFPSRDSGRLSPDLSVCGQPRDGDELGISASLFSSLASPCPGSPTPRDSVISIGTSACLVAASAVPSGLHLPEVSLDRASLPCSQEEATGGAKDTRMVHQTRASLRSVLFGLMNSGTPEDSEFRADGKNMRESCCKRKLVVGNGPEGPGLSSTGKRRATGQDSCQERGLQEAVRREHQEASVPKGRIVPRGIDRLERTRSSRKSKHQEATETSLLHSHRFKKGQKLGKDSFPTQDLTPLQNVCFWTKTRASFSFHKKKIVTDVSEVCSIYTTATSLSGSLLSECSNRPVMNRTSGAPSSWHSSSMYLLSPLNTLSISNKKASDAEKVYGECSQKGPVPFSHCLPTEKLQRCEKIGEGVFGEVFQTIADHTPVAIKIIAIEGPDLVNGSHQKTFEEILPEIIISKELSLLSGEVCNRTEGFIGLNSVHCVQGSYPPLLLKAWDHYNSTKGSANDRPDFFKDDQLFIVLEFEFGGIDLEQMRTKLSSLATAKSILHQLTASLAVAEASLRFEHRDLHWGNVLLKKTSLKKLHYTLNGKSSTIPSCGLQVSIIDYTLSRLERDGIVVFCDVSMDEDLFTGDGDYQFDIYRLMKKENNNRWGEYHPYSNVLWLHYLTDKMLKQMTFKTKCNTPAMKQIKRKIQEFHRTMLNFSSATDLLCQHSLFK

[6] = species on record: Homo sapiens
[7] = species on record: Homo sapiens; assay: Selectivity ratio of Kd for inhibition of Untagged full length human PKAc alpha expressed in Escherichia coli BL21 DE3 cells assessed as dissociation constant to Kd for AKR3
[8] = target: Rho-associated protein kinase 2 (Homo sapiens, UniProt O75116); assay: Inhibition of ROCK2 (unknown origin) assessed as dissociation constant
[9] = Binding affinity to PKAc (unknown origin) assessed as dissociation constant; set-up: species or system Homo sapiens
[10] = species on record: Homo sapiens; assay: Selectivity ratio of Kd for inhibition of Untagged full length human PKAc alpha expressed in Escherichia coli BL21 DE3 cells assessed as dissociation constant to Kd for inhibition of ROCK2 (unknown origin)
[11] = Inhibition of AKR3 (unknown origin) assessed as dissociation constant; set-up: species or system Homo sapiens
[12] = target: T1, cAMP-dependent protein kinase (PKA); assay: Binding affinity to PKA (unknown origin) assessed as dissociation constant; format: protein assay
[13] = target: T2, Serine/threonine-protein kinase haspin; remark: listed apart in the source
[14] = target: T3, Ephrin type-A receptor 3 (Homo sapiens, UniProt P29320); assay: Inhibition of EPHA3 (unknown origin) assessed as dissociation constant by ELISA-like binding assay
T3 sequence (P29320 whole entry): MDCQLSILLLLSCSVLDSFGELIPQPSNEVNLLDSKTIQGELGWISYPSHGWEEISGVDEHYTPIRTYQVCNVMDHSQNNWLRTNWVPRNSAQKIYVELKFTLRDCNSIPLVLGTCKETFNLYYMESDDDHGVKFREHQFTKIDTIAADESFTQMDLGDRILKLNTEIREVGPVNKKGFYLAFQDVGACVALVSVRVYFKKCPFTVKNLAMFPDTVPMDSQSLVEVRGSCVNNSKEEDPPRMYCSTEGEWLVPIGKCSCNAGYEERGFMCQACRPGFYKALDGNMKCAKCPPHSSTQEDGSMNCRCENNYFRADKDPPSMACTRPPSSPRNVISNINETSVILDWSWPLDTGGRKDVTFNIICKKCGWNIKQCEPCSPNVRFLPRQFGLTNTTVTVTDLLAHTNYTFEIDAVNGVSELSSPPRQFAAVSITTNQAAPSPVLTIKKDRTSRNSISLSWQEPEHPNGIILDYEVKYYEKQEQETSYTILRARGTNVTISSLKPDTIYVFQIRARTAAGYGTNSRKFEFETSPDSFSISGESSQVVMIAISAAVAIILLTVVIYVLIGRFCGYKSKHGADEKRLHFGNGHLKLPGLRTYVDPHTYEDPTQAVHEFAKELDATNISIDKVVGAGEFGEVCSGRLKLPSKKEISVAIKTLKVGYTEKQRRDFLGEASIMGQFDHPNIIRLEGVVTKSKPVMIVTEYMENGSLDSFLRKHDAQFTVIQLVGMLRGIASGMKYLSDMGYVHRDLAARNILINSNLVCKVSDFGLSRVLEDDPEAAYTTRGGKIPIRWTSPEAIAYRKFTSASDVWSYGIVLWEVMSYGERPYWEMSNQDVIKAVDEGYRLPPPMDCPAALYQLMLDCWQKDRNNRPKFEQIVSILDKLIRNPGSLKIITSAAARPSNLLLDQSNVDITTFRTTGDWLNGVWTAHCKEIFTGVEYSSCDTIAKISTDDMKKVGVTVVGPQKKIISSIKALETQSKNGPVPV

[15] = Binding affinity to human PKAc beta-S54L mutant assessed as dissociation constant
[16] = target: cAMP-dependent protein kinase catalytic subunit beta (Homo sapiens, UniProt P22694); assay: Binding affinity to human wild-type PKAc beta assessed as dissociation constant
[17] = target: Proto-oncogene tyrosine-protein kinase Src (Homo sapiens, UniProt P12931); assay: Inhibition of c-Src (unknown origin)
[18] = target: T2, Serine/threonine-protein kinase haspin; remark: listed apart in the source
[19] = target: Casein kinase 2 (Homo sapiens, UniProt P67870+P68400+P19784+Q8NEV1); assay: Inhibition of human CK2; format: protein assay

Sequence of Proto-oncogene tyrosine-protein kinase Src (P12931 2-536 limits assumed): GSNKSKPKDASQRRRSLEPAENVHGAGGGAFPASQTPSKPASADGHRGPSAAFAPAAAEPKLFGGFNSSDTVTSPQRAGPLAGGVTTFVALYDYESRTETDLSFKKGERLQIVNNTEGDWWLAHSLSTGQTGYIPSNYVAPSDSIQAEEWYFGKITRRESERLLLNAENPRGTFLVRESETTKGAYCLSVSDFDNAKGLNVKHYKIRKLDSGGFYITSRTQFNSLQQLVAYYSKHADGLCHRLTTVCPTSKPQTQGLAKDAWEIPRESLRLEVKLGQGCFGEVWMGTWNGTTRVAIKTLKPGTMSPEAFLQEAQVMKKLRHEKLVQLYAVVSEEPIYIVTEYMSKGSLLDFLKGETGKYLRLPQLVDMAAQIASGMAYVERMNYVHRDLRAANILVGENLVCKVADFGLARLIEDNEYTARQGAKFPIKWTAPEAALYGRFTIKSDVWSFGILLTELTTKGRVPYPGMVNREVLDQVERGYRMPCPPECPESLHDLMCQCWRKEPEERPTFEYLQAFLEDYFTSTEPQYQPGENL
Sequence of Rho-associated protein kinase 2 (O75116 whole entry): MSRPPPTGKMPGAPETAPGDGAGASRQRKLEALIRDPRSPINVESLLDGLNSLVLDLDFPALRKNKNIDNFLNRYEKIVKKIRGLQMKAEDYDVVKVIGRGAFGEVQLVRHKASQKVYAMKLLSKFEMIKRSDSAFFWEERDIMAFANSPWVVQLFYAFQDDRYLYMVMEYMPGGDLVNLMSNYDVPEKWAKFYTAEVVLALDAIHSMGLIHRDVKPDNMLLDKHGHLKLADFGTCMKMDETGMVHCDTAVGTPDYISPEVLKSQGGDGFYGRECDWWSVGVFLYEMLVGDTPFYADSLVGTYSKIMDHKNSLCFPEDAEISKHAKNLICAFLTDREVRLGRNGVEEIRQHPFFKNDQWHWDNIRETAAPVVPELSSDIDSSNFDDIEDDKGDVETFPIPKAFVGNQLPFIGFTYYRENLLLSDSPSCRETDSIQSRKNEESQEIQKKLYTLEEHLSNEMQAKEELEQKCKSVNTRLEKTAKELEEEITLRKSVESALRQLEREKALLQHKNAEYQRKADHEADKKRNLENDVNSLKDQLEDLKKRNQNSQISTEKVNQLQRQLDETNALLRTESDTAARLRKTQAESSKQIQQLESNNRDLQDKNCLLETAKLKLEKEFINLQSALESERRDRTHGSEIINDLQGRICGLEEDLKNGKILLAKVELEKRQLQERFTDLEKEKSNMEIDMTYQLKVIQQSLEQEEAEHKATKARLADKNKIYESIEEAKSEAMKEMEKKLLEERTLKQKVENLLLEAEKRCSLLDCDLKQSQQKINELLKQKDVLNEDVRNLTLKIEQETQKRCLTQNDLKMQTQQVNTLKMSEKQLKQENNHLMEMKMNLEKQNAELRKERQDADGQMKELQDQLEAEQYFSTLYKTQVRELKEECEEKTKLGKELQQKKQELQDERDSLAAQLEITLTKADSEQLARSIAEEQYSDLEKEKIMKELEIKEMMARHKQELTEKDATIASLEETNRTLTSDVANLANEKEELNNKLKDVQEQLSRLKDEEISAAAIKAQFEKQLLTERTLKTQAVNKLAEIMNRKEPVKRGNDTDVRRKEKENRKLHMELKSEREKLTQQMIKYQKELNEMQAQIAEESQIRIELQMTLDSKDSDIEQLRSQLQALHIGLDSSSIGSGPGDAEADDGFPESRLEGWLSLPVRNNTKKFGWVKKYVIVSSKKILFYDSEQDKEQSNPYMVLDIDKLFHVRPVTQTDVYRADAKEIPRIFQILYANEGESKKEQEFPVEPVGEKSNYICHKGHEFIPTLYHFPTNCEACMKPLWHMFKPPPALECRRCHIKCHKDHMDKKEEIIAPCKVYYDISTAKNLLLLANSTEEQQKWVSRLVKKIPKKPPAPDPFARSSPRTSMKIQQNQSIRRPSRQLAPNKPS

## CO[C@@H]1[C@H](N(C)C(=O)CCC(=O)O)C[C@H]2O[C@]1(C)n1c3ccccc3c3c4c(c5c6ccccc6n2c5c31)C(=O)NC4
[1]
  IC50: 159 nM

## O=C(O)CC[C@H](NC(=O)[C@H](CCC(=O)O)NC(=O)[C@H](CCC(=O)O)NC(=O)[C@H](CCC(=O)O)NC(=O)CCC(=O)NCCCNc1nc2c(Br)c(Br)c(Br)c(Br)c2[nH]1)C(=O)O ({X1-Suc}-EEEE-OH)
[2]
  IC50: 25 nM

## C[C@@H](NC(=O)CCCCCNC(=O)c1ccc(-c2ccnc(N)n2)[se]1)C(=O)N[C@H](CCCNC(=N)N)C(=O)N[C@H](CCCNC(=N)N)C(=O)N[C@H](CCCNC(=N)N)C(=O)N[C@H](CCCNC(=N)N)C(=O)N[C@H](CCCNC(=N)N)C(=O)N[C@H](CCCNC(=N)N)C(=O)N[C@H](CCCCN(C)c1ccc2c(-c3ccc(C(=O)[O-])cc3C(=O)O)c3ccc(=[N+](C)C)cc-3oc2c1)C(N)=O
[3]
  Kd: 0.042 nM

## C[C@H](N)C(=O)N[C@@H](CCCNC(=N)N)C(=O)N[C@@H](CCCCNC(=O)C[C@@H](NC(=O)CCCCCNC(=O)[C@H]1O[C@@H](n2cnc3c(N)ncnc32)[C@H](O)[C@@H]1O)C(N)=O)C(=O)N[C@@H](CCCCN)C(=O)N[C@@H](CCC(N)=O)C(=O)N[C@H](C(=O)N[C@@H](C)C(=O)N[C@@H](CCCNC(=N)N)C(=O)N[C@@H](CCCNC(=N)N)C(=O)N[C@@H](CCCNC(=N)N)C(=O)N[C@@H](CCCNC(=N)N)C(=O)N[C@@H](CCCNC(=N)N)C(=O)N[C@@H](CCCNC(=N)N)C(N)=O)[C@H](C)O
[4]
  Kd: 38 nM
[5]
  Kd: 0.42 nM
[6]
  Selectivity Index: 90

## COC(=O)CC[C@H](NC(=O)CCC(=O)NCCCNc1nc2c(Br)c(Br)c(Br)c(Br)c2[nH]1)C(=O)N[C@@H](CCC(=O)OC)C(=O)N[C@@H](CCC(=O)OC)C(=O)N[C@@H](CCC(=O)OC)C(=O)OC ({X1-Suc}-E(OMe)E(OMe)E(OMe)E(OMe)-OMe)
[2]
  IC50: 10000 nM

## NCCCNc1nc2c(Br)c(Br)c(Br)c(Br)c2[nH]1
[2]
  IC50: 130 nM

## C[C@H](N)C(=O)N[C@@H](CCCNC(=N)N)C(=O)N[C@@H](CCCCNC(=O)C[C@@H](NC(=O)CCCCCNC(=O)[C@H]1O[C@@H](n2cnc3c(N)ncnc32)[C@H](O)[C@@H]1O)C(N)=O)C(=O)N[C@@H](CCCCN)C(=O)N[C@@H](CCC(=O)O)C(=O)N[C@H](C(=O)N[C@@H](C)C(N)=O)[C@H](C)O
[4]
  Kd: 1600 nM
[5]
  Kd: 170 nM
[6]
  Selectivity Index: 9

## CO[C@@H]1[C@H](N(C)C(=O)CCC(=O)NCCCOCCOCCOCCCNC(=O)COCC(=O)N[C@H]2CSSC[C@@H](C(=O)NCC(N)=O)NC(=O)NC(=O)[C@H](Cc3ccccc3)NC(=O)[C@H](C(C)C)NC(=O)[C@H](CCCNC(=N)N)NC(=O)[C@H](Cc3ccccc3)NC(=O)[C@H]([C@@H](C)O)NC2=O)C[C@H]2O[C@]1(C)n1c3ccccc3c3c4c(c5c6ccccc6n2c5c31)C(=O)NC4
[1]
  IC50: 2.6 nM

## N=C(N)NCCC[C@@H](NC(=O)CCCCCCCC(=O)N1CCN(C2N=CN=C3NC=CC32)CC1)C(=O)N[C@H](CCCNC(=N)N)C(=O)N[C@H](CCCNC(=N)N)C(=O)N[C@H](CCCNC(=N)N)C(=O)N[C@H](CCCNC(=N)N)C(=O)N[C@H](CCCNC(=N)N)C(=O)N[C@H](CCCCN)C(N)=O (some centres undefined)
[7]
  Selectivity ratio: 10
[8]
  Kd: 30 nM
[9]
  Kd: 0.003 nM
[10]
  Ratio: 10
[11]
  Kd: 310 nM
[12]
  Kd: 0.1 nM

## Nc1ncnc2c1ncn2[C@@H]1O[C@H](C(=O)O)[C@@H](O)[C@H]1O [5'-CARBOXY ADENOSINE]
[13]
  Kd: > 15000 nM

## CC(C)(C)n1nc(-c2ccc(Cl)cc2)c2c(N)ncnc21
[14]
  Kd: 200000 nM

## N=C(N)NCCCC(NC(=O)CCCCCNC(=O)C(Cc1c[nH]c2ccccc12)NC(=O)CCCCCNC(=O)c1ccc(-c2ccnc(N)n2)[se]1)C(=O)NC(CCCNC(=N)N)C(=O)NC(CCCNC(=N)N)C(=O)NC(CCCNC(=N)N)C(=O)NC(CCCNC(=N)N)C(=O)NC(CCCNC(=N)N)C(=O)NC(CCCCN)C(N)=O (centres undefined)
[15]
  Kd: 0.019 nM
[16]
  Kd: 0.013 nM

## CC[C@H](C)[C@H](NC(=O)[C@H](CCC(=O)O)NC(=O)[C@H](CCC(=O)O)NC(=O)[C@H](Cc1ccc(P(=O)(O)O)cc1)NC(=O)[C@H](CCC(=O)O)NC(=O)COCC(=O)NCCOCCOCCOCCOCCOCCOCCOCCOCCn1cc(CCC(=O)N2CCN(c3cc(Nc4cc(C5CC5)[nH]n4)nc(C)n3)CC2)nn1)C(N)=O
[17]
  IC50: 160 nM

## C[C@H](N)C(=O)N[C@@H](CCCNC(=N)N)C(=O)N[C@@H](CCCCNC(=O)C[C@@H](NC(=O)CCCCCNC(=O)[C@H]1O[C@@H](n2cc(I)c3c(N)ncnc32)[C@H](O)[C@@H]1O)C(=O)O)C(=O)N[C@@H](CCCNC(=N)N)C(=O)N[C@@H](CCC(=O)O)C(=O)N[C@H](C(=O)N[C@@H](C)C(=O)N[C@H](CCCCN)C(N)=O)[C@H](C)O
[18]
  Kd: 0.019 nM
[4]
  Kd: 94 nM
[13]
  Kd: 0.019 nM
[6]
  Selectivity Index: 4900

## NC(=O)C(CCC(=O)O)NC(=O)C(CCC(=O)O)NC(=O)C(CCC(=O)O)NC(=O)C(CO)NC(=O)C(CCC(=O)O)NC(=O)[C@@H](N)CCCCNC(=O)Cc1c(Br)c(Br)c(Br)c2[nH]nnc12 (some centres undefined) (H-K(X2)[ξE][ξS][ξE][ξE][ξE]-NH2)
[19]
  IC50: 670 nM

## O=C(O)Cc1c(Br)c(Br)c(Br)c2[nH]nnc12
[19]
  IC50: 8000 nM

## CC(C)[C@@H]1NC(=O)[C@H](CCCNC(=N)N)NC(=O)[C@H](Cc2ccccc2)NC(=O)[C@H]([C@@H](C)O)NC(=O)[C@@H](N)CSSC[C@@H](C(=O)NCC(N)=O)NC(=O)NC(=O)[C@H](Cc2ccccc2)NC1=O
[1]
  IC50: 57000 nM

## C[C@H](N)C(=O)N[C@@H](CCCNC(=N)N)C(=O)N[C@@H](CCCCNC(=O)C[C@@H](NC(=O)CCCCCNC(=O)[C@H]1O[C@@H](n2cnc3c(N)ncnc32)[C@H](O)[C@@H]1O)C(=O)O)C(=O)N[C@@H](CCCCN)C(=O)N[C@@H](CCC(N)=O)C(=O)N[C@H](C(=O)N[C@@H](C)C(N)=O)[C@@H](C)O
[4]
  Kd: 7700 nM
[5]
  Kd: 150 nM
[6]
  Selectivity Index: 50

## C#CCCC(=O)N1CCN(c2cc(Nc3cc(C4CC4)[nH]n3)nc(C)n2)CC1
[17]
  IC50: 2900 nM
